Key:
Assay in all cases: cells
Conditions in all cases: Homo sapiens
SCC-15 = format: functional, cell-based;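 note: growth inhibition of SCC-15 cells, read out with a cell viability assay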
Description: SANGER: Inhibition of human SCC-15 cell growth in a cell viability assay.

K562 = format: functional, cell-based
Description: SANGER: Inhibition of human K-562 cell growth in a cell viability assay.

NB69 = format: functional, cell-based;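 note: growth inhibition of NB69 cells, determined by a cell viability assay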
Description: SANGER: Inhibition of human NB69 cell growth in a cell viability assay.

NOS-1 = format: functional, cell-based;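 note: growth inhibition of the human NOS-1 cell line, read out with a cell viability assay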
Description: SANGER: Inhibition of human NOS-1 cell growth in a cell viability assay.

BV-173 = format: functional, cell-based
Description: SANGER: Inhibition of human BV-173 cell growth in a cell viability assay.

RCC10RGB = format: functional, cell-based;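 note: growth inhibition of human RCC10RGB cells, read out by a cell viability assay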
Description: SANGER: Inhibition of human RCC10RGB cell growth in a cell viability assay.

SCH = format: functional, cell-based;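 note: growth inhibition of human SCH cells, read out in a cell viability assay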
Description: SANGER: Inhibition of human SCH cell growth in a cell viability assay.

LB831-BLC = format: functional, cell-based;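 note: growth inhibition of LB831-BLC cells, read out with a cell viability assay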
Description: SANGER: Inhibition of human LB831-BLC cell growth in a cell viability assay.

NCI-H1092 = format: functional, cell-based;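 note: cell growth inhibition measured with a cell viability assay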
Description: SANGER: Inhibition of human NCI-H1092 cell growth in a cell viability assay.

KG-1 = format: functional, cell-based;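 note: growth inhibition of KG-1 cells, read out by a cell viability assay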
Description: SANGER: Inhibition of human KG-1 cell growth in a cell viability assay.

COLO-684 = format: functional, cell-based
Description: SANGER: Inhibition of human COLO-684 cell growth in a cell viability assay.

P30-OHK = format: functional, cell-based;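 note: growth inhibition of the P30-OHK cell line, read out with a cell viability assay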
Description: SANGER: Inhibition of human P30-OHK cell growth in a cell viability assay.

Ramos-2G6-4C10 = format: functional, cell-based;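 note: growth inhibition of the cell line, measured by a cell viability read-out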
Description: SANGER: Inhibition of human Ramos-2G6-4C10 cell growth in a cell viability assay.

NCI-H23 = format: functional, cell-based;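 note: cell viability assay measuring growth inhibition of NCI-H23 cells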
Description: SANGER: Inhibition of human NCI-H23 cell growth in a cell viability assay.

LB771-HNC = format: functional, cell-based;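 note: growth inhibition of LB771-HNC human cells, read out with a cell viability assay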
Description: SANGER: Inhibition of human LB771-HNC cell growth in a cell viability assay.

KS-1 = format: functional, cell-based;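 note: growth inhibition of KS-1 cells, read out with a cell viability assay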
Description: SANGER: Inhibition of human KS-1 cell growth in a cell viability assay.

HT = format: functional, cell-based
Description: SANGER: Inhibition of human HT cell growth in a cell viability assay.

GOTO = format: functional, cell-based;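 note: growth inhibition of GOTO cells, read out by a cell viability assay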
Description: SANGER: Inhibition of human GOTO cell growth in a cell viability assay.

MOLT-16 = format: functional, cell-based;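 note: growth inhibition of human MOLT-16 cells, read out with a cell viability assay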
Description: SANGER: Inhibition of human MOLT-16 cell growth in a cell viability assay.

KU812 cell line = format: functional, cell-based;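 note: growth inhibition of KU812 cells, read out with a cell viability assay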
Description: SANGER: Inhibition of human KU812 cell growth in a cell viability assay.

HAL-01 = format: functional, cell-based;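 note: growth inhibition of human HAL-01 cells, read out with a cell viability assay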
Description: SANGER: Inhibition of human HAL-01 cell growth in a cell viability assay.

IST-SL1 = format: functional, cell-based;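 note: growth inhibition of human IST-SL1 cells, read out with a cell viability assay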
Description: SANGER: Inhibition of human IST-SL1 cell growth in a cell viability assay.

JVM-3 = format: functional, cell-based;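 note: growth inhibition of human JVM-3 cells, read out with a cell viability assay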
Description: SANGER: Inhibition of human JVM-3 cell growth in a cell viability assay.

COLO-829 = format: functional, cell-based
Description: SANGER: Inhibition of human COLO-829 cell growth in a cell viability assay.

LS-411N = format: functional, cell-based
TE-1 = format: functional, cell-based;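 note: growth inhibition of the human TE-1 cell line, read out with a cell viability assay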
Description: SANGER: Inhibition of human TE-1 cell growth in a cell viability assay.

BB65-RCC = format: functional, cell-based;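 note: growth inhibition of the cell line, measured with a cell viability assay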
Description: SANGER: Inhibition of human BB65-RCC cell growth in a cell viability assay.

SW982 = format: functional, cell-based;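 note: growth inhibition of SW982 cells, read out with a cell viability assay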
Description: SANGER: Inhibition of human SW982 cell growth in a cell viability assay.

D-263MG = format: functional, cell-based
Description: SANGER: Inhibition of human D-263MG cell growth in a cell viability assay.

NCI-H526 = format: functional, cell-based;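 note: growth inhibition of the human NCI-H526 cell line, measured by a cell viability assay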
Description: SANGER: Inhibition of human NCI-H526 cell growth in a cell viability assay.

ES7 = format: functional, cell-based;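 note: growth inhibition of cultured human ES7 cells, read out as cell viability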
Description: SANGER: Inhibition of human ES7 cell growth in a cell viability assay.

BE-13 = format: functional, cell-based;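 note: growth inhibition of human BE-13 cells, measured with a cell viability assay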
Description: SANGER: Inhibition of human BE-13 cell growth in a cell viability assay.

NCI-H510A = format: functional, cell-based;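 note: growth inhibition of NCI-H510A cells, read out with a cell viability assay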
Description: SANGER: Inhibition of human NCI-H510A cell growth in a cell viability assay.

GCIY = format: functional, cell-based;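 note: growth inhibition of the human GCIY cell line, read out by a cell viability assay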
Description: SANGER: Inhibition of human GCIY cell growth in a cell viability assay.

SH-4 = format: functional, cell-based;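 note: growth inhibition of SH-4 cells, read out with a cell viability assay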
Description: SANGER: Inhibition of human SH-4 cell growth in a cell viability assay.

SW684 = format: functional, cell-based;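 note: growth inhibition of human SW684 cells, measured by a cell viability assay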
Description: SANGER: Inhibition of human SW684 cell growth in a cell viability assay.

SW872 = format: functional, cell-based;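 note: growth inhibition of SW872 cells, read out by a viability assay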
Description: SANGER: Inhibition of human SW872 cell growth in a cell viability assay.

MHH-NB-11 = format: functional, cell-based;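 note: growth inhibition of human MHH-NB-11 cells, read out by a cell viability assay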
Description: SANGER: Inhibition of human MHH-NB-11 cell growth in a cell viability assay.

LXF-289 cell line = format: functional, cell-based
Description: SANGER: Inhibition of human LXF-289 cell growth in a cell viability assay.

SK-NEP-1 = format: functional, cell-based;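 note: growth inhibition of human SK-NEP-1 cells, read out by a cell viability assay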
Description: SANGER: Inhibition of human SK-NEP-1 cell growth in a cell viability assay.

NB6 = format: functional, cell-based
Description: SANGER: Inhibition of human NB6 cell growth in a cell viability assay.

U-87 MG = format: functional, cell-based, U-87MG ATCC;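 note: growth inhibition of the cells measured with a viability assay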
Description: SANGER: Inhibition of human U-87-MG cell growth in a cell viability assay.

DJM-1 = format: functional, cell-based;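 note: growth inhibition of human DJM-1 cells, read out by a cell viability assay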
Description: SANGER: Inhibition of human DJM-1 cell growth in a cell viability assay.

MS-1 = format: functional, cell-based;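 note: growth inhibition of MS-1 cells, read out by cell viability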
Description: SANGER: Inhibition of human MS-1 cell growth in a cell viability assay.

NH-12 = format: functional, cell-based;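 note: growth inhibition of NH-12 cells, read out with a cell viability assay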
Description: SANGER: Inhibition of human NH-12 cell growth in a cell viability assay.

KM-H2 = format: functional, cell-based;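 note: growth inhibition of KM-H2 cells, read out by a cell viability assay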
Description: SANGER: Inhibition of human KM-H2 cell growth in a cell viability assay.

EKVX = format: functional, cell-based;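 note: growth inhibition of human EKVX cells, read out with a cell viability assay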
Description: SANGER: Inhibition of human EKVX cell growth in a cell viability assay.

NKM-1 = format: functional, cell-based;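 note: growth inhibition of NKM-1 cells, read out with a cell viability assay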
Description: SANGER: Inhibition of human NKM-1 cell growth in a cell viability assay.

EW-18 = format: functional, cell-based;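 note: growth inhibition of EW-18 cells, read out by a cell viability assay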
Description: SANGER: Inhibition of human EW-18 cell growth in a cell viability assay.

TE-5 = format: functional, cell-based;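 note: inhibition of cell growth, read out by a cell viability assay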
Description: SANGER: Inhibition of human TE-5 cell growth in a cell viability assay.

HCE-4 = format: functional, cell-based;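 note: cell viability assay measuring inhibition of growth in the human HCE-4 cell line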
Description: SANGER: Inhibition of human HCE-4 cell growth in a cell viability assay.

IST-MEL1 = format: functional, cell-based;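 note: growth inhibition of the cell line, read out with a cell viability assay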
Description: SANGER: Inhibition of human IST-MEL1 cell growth in a cell viability assay.

RPMI-8226 = format: functional, cell-based
Description: SANGER: Inhibition of human RPMI-8226 cell growth in a cell viability assay.

MMAC-SF = format: functional, cell-based;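 note: growth inhibition of human MMAC-SF cells, read out with a cell viability assay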
Description: SANGER: Inhibition of human MMAC-SF cell growth in a cell viability assay.

697 = format: functional, cell-based
Description: SANGER: Inhibition of human 697 cell growth in a cell viability assay.

NCI-H1155 = format: functional, cell-based;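 note: cell growth inhibition measured by a viability assay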
Description: SANGER: Inhibition of human NCI-H1155 cell growth in a cell viability assay.

8-MG-BA = format: functional, cell-based;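 note: growth inhibition of 8-MG-BA cells, read out with a cell viability assay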
Description: SANGER: Inhibition of human 8-MG-BA cell growth in a cell viability assay.

NCI-H1838 = format: functional, cell-based;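 note: growth inhibition of NCI-H1838 cells, determined with a cell viability readout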
Description: SANGER: Inhibition of human NCI-H1838 cell growth in a cell viability assay.

KLE = format: functional, cell-based;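 note: growth inhibition of human KLE cells, read out with a cell viability assay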
Description: SANGER: Inhibition of human KLE cell growth in a cell viability assay.

NCI-H209 = format: functional, cell-based;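 note: growth inhibition of human NCI-H209 cells, measured by a cell viability assay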
Description: SANGER: Inhibition of human NCI-H209 cell growth in a cell viability assay.

SK-MEL-2 = format: functional, cell-based;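 note: growth inhibition of human SK-MEL-2 cells measured with a cell viability assay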
Description: SANGER: Inhibition of human SK-MEL-2 cell growth in a cell viability assay.

MZ2-MEL = format: functional, cell-based
Description: SANGER: Inhibition of human MZ2-MEL cell growth in a cell viability assay.

KP-N-YS = format: functional, cell-based
Description: SANGER: Inhibition of human KP-N-YS cell growth in a cell viability assay.

PSN1 = format: functional, cell-based
Description: SANGER: Inhibition of human PSN1 cell growth in a cell viability assay.

ACN = format: functional, cell-based
Description: SANGER: Inhibition of human ACN cell growth in a cell viability assay.

NCI-H2126 = format: functional, cell-based
Description: SANGER: Inhibition of human NCI-H2126 cell growth in a cell viability assay.

Q: For `C/C=C(/C)C(=O)O[C@H]1C(C)=C2[C@H]([C@@H]1OC(=O)CCCCCCC)[C@@](C)(OC(C)=O)C[C@H](OC(=O)CCC)[C@@]1(O)[C@H]2OC(=O)[C@@]1(C)O` [THAPSIGARGIN], which IC50 (SCC-15) is on record?
A: 1.12 nM

Q: What about the IC50 (K562) of the same compound?
A: 305 nM

Q: And the IC50 (NB69)?
A: 0.873 nM

Q: What about the IC50 (NOS-1) of the same compound?
A: < 2 nM

Q: What about the IC50 (BV-173) of the same compound?
A: 2.81 nM

Q: What about the IC50 (RCC10RGB) of the same compound?
A: > 512 nM

Q: What about the IC50 (SCH) of the same compound?
A: > 512 nM

Q: What about the IC50 (LB831-BLC) of the same compound?
A: 3.94 nM

Q: And the IC50 (NCI-H1092)?
A: > 512 nM

Q: And the IC50 (KG-1)?
A: 67.4 nM

Q: What about the IC50 (COLO-684) of the same compound?
A: 345 nM

Q: And the IC50 (P30-OHK)?
A: 2.08 nM

Q: What about the IC50 (Ramos-2G6-4C10) of the same compound?
A: 0.855 nM

Q: And the IC50 (NCI-H23)?
A: > 512 nM

Q: What about the IC50 (LB771-HNC) of the same compound?
A: 64.1 nM

Q: And the IC50 (KS-1)?
A: 3.61 nM

Q: What about the IC50 (HT) of the same compound?
A: 5.7 nM

Q: What about the IC50 (GOTO) of the same compound?
A: 50.5 nM

Q: And the IC50 (MOLT-16)?
A: 4.52 nM

Q: What about the IC50 (KU812 cell line) of the same compound?
A: 2.12 nM

Q: And the IC50 (HAL-01)?
A: 301 nM

Q: What about the IC50 (IST-SL1) of the same compound?
A: 24.2 nM

Q: And the IC50 (JVM-3)?
A: 33.6 nM

Q: And the IC50 (COLO-829)?
A: 29.8 nM

Q: And the IC50 (LS-411N)?
A: 13.6 nM

Q: What about the IC50 (TE-1) of the same compound?
A: 22 nM

Q: What about the IC50 (BB65-RCC) of the same compound?
A: 5.08 nM

Q: What about the IC50 (SW982) of the same compound?
A: < 2 nM

Q: And the IC50 (D-263MG)?
A: 37.2 nM

Q: What about the IC50 (NCI-H526) of the same compound?
A: 34 nM

Q: What about the IC50 (ES7) of the same compound?
A: 21.1 nM

Q: What about the IC50 (BE-13) of the same compound?
A: 7.35 nM

Q: What about the IC50 (NCI-H510A) of the same compound?
A: 36.1 nM

Q: What about the IC50 (GCIY) of the same compound?
A: 53.5 nM

Q: And the IC50 (SH-4)?
A: 17.8 nM

Q: What about the IC50 (SW684) of the same compound?
A: > 512 nM

Q: What about the IC50 (SW872) of the same compound?
A: 5.78 nM

Q: And the IC50 (MHH-NB-11)?
A: 45.1 nM

Q: What about the IC50 (LXF-289 cell line) of the same compound?
A: < 2 nM

Q: And the IC50 (SK-NEP-1)?
A: 15.9 nM

Q: And the IC50 (NB6)?
A: 4.58 nM

Q: What about the IC50 (U-87 MG) of the same compound?
A: 132 nM

Q: What about the IC50 (DJM-1) of the same compound?
A: 54.7 nM

Q: And the IC50 (MS-1)?
A: 29.5 nM

Q: What about the IC50 (NH-12) of the same compound?
A: 24 nM

Q: And the IC50 (KM-H2)?
A: < 2 nM

Q: And the IC50 (EKVX)?
A: 250 nM

Q: And the IC50 (NKM-1)?
A: 6.12 nM

Q: And the IC50 (EW-18)?
A: 2.11 nM

Q: And the IC50 (TE-5)?
A: > 512 nM

Q: What about the IC50 (HCE-4) of the same compound?
A: 4.25 nM

Q: And the IC50 (IST-MEL1)?
A: 0.788 nM

Q: What about the IC50 (RPMI-8226) of the same compound?
A: 14.9 nM

Q: What about the IC50 (MMAC-SF) of the same compound?
A: 28.3 nM

Q: What about the IC50 697 of the same compound?
A: < 2 nM

Q: What about the IC50 (NCI-H1155) of the same compound?
A: 285 nM

Q: And the IC50 (8-MG-BA)?
A: 1.99 nM

Q: And the IC50 (NCI-H1838)?
A: > 512 nM

Q: What about the IC50 (KLE) of the same compound?
A: 70.2 nM

Q: What about the IC50 (NCI-H209) of the same compound?
A: 18.1 nM

Q: And the IC50 (SK-MEL-2)?
A: < 2 nM

Q: What about the IC50 (MZ2-MEL) of the same compound?
A: 1.79 nM

Q: And the IC50 (KP-N-YS)?
A: 8.06 nM

Q: And the IC50 (PSN1)?
A: < 2 nM

Q: And the IC50 (ACN)?
A: 4.69 nM

Q: And the IC50 (NCI-H2126)?
A: 79.3 nM

Source: ChEMBL document CHEMBL1201861, “Genomics of Drug Sensitity in Cancer screening data, Wellcome Trust Sanger Institute”
